The subject of one assay is CMV. The assay can be described thus: microbe, parasite or virus in culture. Type of assay: cell-based. Conditions: Human betaherpesvirus 5, 72 h, read-out: CMV-Luc Cellular EC50, NN-NHDF cells, MOI 1, 72 hrs.
In a further assay the target is CMV-polymerase (Human cytomegalovirus (strain AD169) (HHV-5) (Human herpesvirus 5), UniProt P08546). The assay can be described thus: biochemical.
Setting [1] is: read-out: CMV-polymerase Biochemical IC50.
Where [2] appears, read: CMV-polymerase Biochemical IC50.

The values that follow come from patent US12338220B2, “Antiviral pyrazolopiridinone compounds” (Novartis AG, priority 2019, dated 2025).

Read-outs that look alike come from different tables or passages of the source.

In the case of `Cn1nc(C(=O)NCc2ccc(C#N)cc2)c2c1C(=O)N(CC1(S(=O)(=O)C3(COCCN)CC3)CC1)CC2` [Example 96, 6-((1-((1-((2-aminoethoxy)methyl)cyclopropyl)sulfonyl)cyclopropyl)methyl)-N-(4-cyanobenzyl)-1-methyl-7-oxo-4,5,6,7-tetrahydro-1H-pyrazolo[3,4-c]pyridine-3-carboxamide], in the assay with CMV, the EC50 (in general, the concentration that produces a half-maximal response) is 26 nM. On CMV-polymerase (setting [1]), the concentration for half-maximal inhibition (IC50) – broadly, the concentration needed to halve the response being measured – worked out at 1 nM.

For the compound `Cn1nc(C(=O)NCc2ccc(C#N)cc2)c2c1C(=O)N(CC1(S(=O)(=O)C(C)(C)CN3CCC(O)C3)CC1)CC2` (stereo not shown) [Example 68, N-(4-Cyanobenzyl)-6-((1-((1-(3-hydroxypyrrolidin-1-yl)-2-methylpropan-2-yl)sulfonyl)cyclopropyl)methyl)-1-methyl-7-oxo-4,5,6,7-tetrahydro-1H-pyrazolo[3,4-c]pyridine-3-carboxamide], the half-maximal effective concentration (EC50) in the assay on CMV turned out to be 115 nM. Moreover, at CMV-polymerase (setting [1]), the IC50 is 1 nM.

In the case of `C[C@@H](N)C(=O)NCC(C)(C)S(=O)(=O)C1(CN2CCc3c(C(=O)NCc4ccc(C#N)cc4)nn(C)c3C2=O)CC1` [Example 75, (R)-6-((1-((1-(2-Aminopropanamido)-2-methylpropan-2-yl)sulfonyl)cyclopropyl)methyl)-N-(4-cyanobenzyl)-1-methyl-7-oxo-4,5,6,7-tetrahydro-1H-pyrazolo[3,4-c]pyridine-3-carboxamide], in the assay with CMV, the EC50 came out at 47 nM. Further, the half-maximal inhibitory concentration (IC50) at CMV-polymerase (setting [1]) was 7 nM.

Regarding `CCC(=O)Cn1nc(C(=O)NCc2ccc(C#N)cc2)c2c1C(=O)N(CC1(S(=O)(=O)C3CC3)CC1)CC2` [Example 227, N-(4-Cyanobenzyl)-6-((1-(cyclopropylsulfonyl)cyclopropyl)methyl)-7-oxo-1-(2-oxobutyl)-4,5,6,7-tetrahydro-1H-pyrazolo[3,4-c]pyridine-3-carboxamide], the EC50 with CMV was found to be 28 nM. Besides, it took 1 nM to reach half-maximal inhibition against CMV-polymerase (setting [2]) (IC50).

Take `Cn1nc(C(=O)NCc2ccc(Cl)cc2)c2c1C(=O)N(CC1(S(=O)(=O)C(F)F)CC1)CC2` [Example 39, N-(4-Chlorobenzyl)-6-((1-((difluoromethyl)sulfonyl)cyclopropyl)methyl)-1-methyl-7-oxo-4,5,6,7-tetrahydro-1H-pyrazolo[3,4-c]pyridine-3-carboxamide]: the half-maximal effective concentration (EC50) in the assay with CMV worked out at 376 nM. Further, half-maximal inhibition against CMV-polymerase (setting [2]) (IC50) was put at 25 nM.

On to `CN(C)CC(=O)NCC(C)(C)S(=O)(=O)C1(CN2CCc3c(C(=O)NCc4ccc(C#N)cc4)nn(C)c3C2=O)CC1` [Example 78, N-(4-Cyanobenzyl)-6-((1-((1-(2-(dimethylamino)acetamido)-2-methylpropan-2-yl)sulfonyl)cyclopropyl)methyl)-1-methyl-7-oxo-4,5,6,7-tetrahydro-1H-pyrazolo[3,4-c]pyridine-3-carboxamide], for which, in the assay on CMV, the EC50 was found to be 112 nM. Moreover, the half-maximal inhibitory concentration (IC50) on CMV-polymerase (setting [1]) worked out at 26 nM.

As for `Cn1nc(C(=O)NCc2ccc(Cl)cc2)c2c1C(=O)N(CC1(S(=O)(=O)C(C)(C)[C@H](O)CO)CC1)CC2` [Example 191, (R)—N-(4-Chlorobenzyl)-6-((1-((3,4-dihydroxy-2-methylbutan-2-yl)sulfonyl)cyclopropyl)methyl)-1-methyl-7-oxo-4,5,6,7-tetrahydro-1H-pyrazolo[3,4-c]pyridine-3-carboxamide], the EC50 in the assay with CMV was determined as 5 nM. In addition, the 50% inhibitory concentration (IC50) on CMV-polymerase (setting [1]) came out at 1 nM.

Take `N#Cc1ccc(CNC(=O)c2nn(CCCO)c3c2CCN(CC2(S(=O)(=O)C4CC4)CC2)C3=O)cc1` [Example 236, N-(4-Cyanobenzyl)-6-((1-(cyclopropylsulfonyl)cyclopropyl)methyl)-1-(3-hydroxypropyl)-7-oxo-4,5,6,7-tetrahydro-1H-pyrazolo[3,4-c]pyridine-3-carboxamide]: the EC50 with CMV was 77 nM. For the same compound, the half-inhibitory concentration (IC50) on CMV-polymerase (setting [1]) stood at 4 nM.

In the case of `Cn1nc(C(=O)NCc2ccc(C#N)cc2)c2c1C(=O)N(CC1(S(=O)(=O)N3CC[C@H](N)C3)CC1)CC2` [Example 142, (S)-6-((1-((3-Aminopyrrolidin-1-yl)sulfonyl)cyclopropyl)methyl)-N-(4-cyanobenzyl)-1-methyl-7-oxo-4,5,6,7-tetrahydro-1H-pyrazolo[3,4-c]pyridine-3-carboxamide], in the assay on CMV, the EC50 was found to be 66 nM. Besides, the IC50 on CMV-polymerase (setting [1]) worked out at 18 nM.

Consider `Cn1nc(C(=O)NCc2ccc(C#N)cc2)c2c1C(=O)N(CC1(S(=O)(=O)CC(C)(C)O)CC1)CC2` [Example 118, N-(4-Cyanobenzyl)-6-((1-((2-hydroxy-2-methylpropyl)sulfonyl)cyclopropyl)methyl)-1-methyl-7-oxo-4,5,6,7-tetrahydro-1H-pyrazolo[3,4-c]pyridine-3-carboxamide], for which the 50% effective concentration (EC50) in the assay with CMV was found to be 327 nM. Also, at CMV-polymerase (setting [1]), the IC50 turned out to be 19 nM.

As for `N#Cc1ccc(CNC(=O)c2nn(CC3(O)CC3)c3c2CCN(CC2(S(=O)(=O)C4CC4)CC2)C3=O)cc1` [Example 228, N-(4-Cyanobenzyl)-6-((1-(cyclopropylsulfonyl)cyclopropyl)methyl)-1-((1-hydroxycyclopropyl)methyl)-7-oxo-4,5,6,7-tetrahydro-1H-pyrazolo[3,4-c]pyridine-3-carboxamide], the EC50 with CMV stood at 51 nM. Half-maximal inhibition at CMV-polymerase (setting [2]) (IC50) required 2 nM.

Take `Cn1nc(-c2cc(Cc3ccc(C#N)cc3)on2)c2c1C(=O)N(CC1(S(=O)(=O)C3CC3)CC1)CC2` [Example 34, 4-((3-(6-((1-(Cyclopropylsulfonyl)cyclopropyl)methyl)-1-methyl-7-oxo-4,5,6,7-tetrahydro-1H-pyrazolo[3,4-c]pyridin-3-yl)isoxazol-5-yl)methyl)benzonitrile]: the EC50 with CMV was found to be 10 nM. Besides, on CMV-polymerase (setting [2]), the IC50 stood at 1 nM.

As for `C[C@H](NC(=O)c1nn(C)c2c1CCN(CC1(S(=O)(=O)C(C)(C)CO)CC1)C2=O)c1ccc(C#N)cc1` [Example 54, (S)-N-(1-(4-Cyanophenyl)ethyl)-6-((1-((1-hydroxy-2-methylpropan-2-yl)sulfonyl)cyclopropyl)methyl)-1-methyl-7-oxo-4,5,6,7-tetrahydro-1H-pyrazolo[3,4-c]pyridine-3-carboxamide], the EC50 in the assay with CMV turned out to be 53 nM. The concentration for half-maximal inhibition (IC50) at CMV-polymerase (setting [1]) was determined as 2 nM.

In the case of `Cn1nc(C(=O)N[C@@H](CO)c2ccc(Cl)cc2)c2c1C(=O)N(CC1(S(=O)(=O)C3CC3)CC1)CC2` [Example 18, (R)-N-(1-(4-Chlorophenyl)-2-hydroxyethyl)-6-((1-(cyclopropylsulfonyl)cyclopropyl)methyl)-1-methyl-7-oxo-4,5,6,7-tetrahydro-1H-pyrazolo[3,4-c]pyridine-3-carboxamide], the concentration for a half-maximal effect (EC50) in the assay on CMV turned out to be 301 nM. At CMV-polymerase (setting [1]), the IC50 was found to be 22 nM.

As for `CN1CCN(S(=O)(=O)C2(CN3CCc4c(C(=O)NCc5ccc(C#N)cc5)nn(C)c4C3=O)CC2)CC1` [Example 136, N-(4-Cyanobenzyl)-1-methyl-6-((1-((4-methylpiperazin-1-yl)sulfonyl)cyclopropyl)methyl)-7-oxo-4,5,6,7-tetrahydro-1H-pyrazolo[3,4-c]pyridine-3-carboxamide], the 50% effective concentration (EC50) in the assay with CMV worked out at 199 nM. The IC50 at CMV-polymerase (setting [1]) was 18 nM.

With `CS(=O)(=O)C1(CN2CCc3c(nn4c3C(=O)N(Cc3ccc(C#N)cc3)CC4)C2=O)CC1` [Example 46, 4-((8-((1-(Methylsulfonyl)cyclopropyl)methyl)-1,7-dioxo-3,4,7,8,9,10-hexahydropyrido[3′,4′:3,4]pyrazolo[1,5-a]pyrazin-2(1H)-yl)methyl)benzonitrile], in the assay on CMV, the half-maximal effective concentration (EC50) amounted to 746 nM. Moreover, the midpoint of inhibition at CMV-polymerase (setting [2]), the IC50, lay at 41 nM.

With `Cn1nc(C(=O)NCc2ccc(C#N)cc2)c2c1C(=O)N(CC1(S(=O)(=O)N3CC[C@H](O)C3)CC1)CC2` [Example 127, (S)-N-(4-Cyanobenzyl)-6-((1-((3-hydroxypyrrolidin-1-yl)sulfonyl)cyclopropyl)methyl)-1-methyl-7-oxo-4,5,6,7-tetrahydro-1H-pyrazolo[3,4-c]pyridine-3-carboxamide], the half-maximal effective concentration (EC50) in the assay on CMV stood at 122 nM. For the same compound, the IC50 on CMV-polymerase (setting [1]) turned out to be 4 nM.

In the case of `CC1(C)COCCOCCn2nc(C(=O)NCc3ccc(C#N)cc3)c3c2C(=O)N(CC3)CC2(CC2)S1(=O)=O` [Example 239, Ethylene glycol macrocycle N-(4-cyanobenzyl)carboxamide], the EC50 in the assay on CMV worked out at 23 nM. The compound further displayed a half-inhibitory concentration (IC50) on CMV-polymerase (setting [2]) of 1 nM.

Take `Cn1nc(C(=O)NCc2ccc(C#N)cc2)c2c1C(=O)N(CC1(S(=O)(=O)C(C)(C)CNC(=O)CN)CC1)CC2` [Example 74, 6-((1-((1-(2-Aminoacetamido)-2-methylpropan-2-yl)sulfonyl)cyclopropyl)methyl)-N-(4-cyanobenzyl)-1-methyl-7-oxo-4,5,6,7-tetrahydro-1H-pyrazolo[3,4-c]pyridine-3-carboxamide]: the concentration for a half-maximal effect (EC50) in the assay on CMV is 148 nM. At CMV-polymerase (setting [1]), the IC50 was found to be 3 nM.

For `Cc1ccc(CNC(=O)c2nn(C)c3c2CCN(CC2(S(=O)(=O)C4CC4)CC2)C3=O)cc1` [Example 8, 6-((1-(Cyclopropylsulfonyl)cyclopropyl)methyl)-1-methyl-N-(4-methylbenzyl)-7-oxo-4,5,6,7-tetrahydro-1H-pyrazolo[3,4-c]pyridine-3-carboxamide], the concentration giving a half-maximal response (EC50) with CMV came out at 339 nM. Besides, the half-maximal inhibitory concentration (IC50) at CMV-polymerase (setting [1]) was found to be 35 nM.

With `CC1(C)COCCOCCn2nc(C(=O)NCc3ccc(Cl)cc3)c3c2C(=O)N(CC3)CC2(CC2)S1(=O)=O` [Example 240, Ethylene glycol macrocycle N-(4-chlorobenzyl)carboxamide], the EC50 in the assay with CMV stood at 43 nM. The same compound returned an IC50 against CMV-polymerase (setting [2]) of 1 nM.

For the compound `Cn1nc(C(=O)NCc2ccc(C#N)cc2)c2c1C(=O)N(CC1(S(=O)(=O)C(C)(C)CN3CC(F)C3)CC1)CC2` [Example 60, N-(4-Cyanobenzyl)-6-((1-((1-(3-fluoroazetidin-1-yl)-2-methylpropan-2-yl)sulfonyl)cyclopropyl)methyl)-1-methyl-7-oxo-4,5,6,7-tetrahydro-1H-pyrazolo[3,4-c]pyridine-3-carboxamide], in the assay with CMV, the half-maximal effective concentration (EC50) worked out at 62 nM. In addition, the IC50 against CMV-polymerase (setting [2]) stood at 2 nM.

As to `Cn1nc(C2=NOC(c3ccc(C#N)cc3)C2)c2c1C(=O)N(CC1(S(=O)(=O)C3CC3)CC1)CC2` (stereo not shown) [Example 31, 4-(3-(6-((1-(Cyclopropylsulfonyl)cyclopropyl)methyl)-1-methyl-7-oxo-4,5,6,7-tetrahydro-1H-pyrazolo[3,4-c]pyridin-3-yl)-4,5-dihydroisoxazol-5-yl)benzonitrile], the EC50 in the assay with CMV was determined as 101 nM. This compound came in with an IC50 against CMV-polymerase (setting [2]) of 12 nM.
